# Source: publication PMC3837394 (Advances in Protein Chemistry and Structural Biology, 2012)
# Columns and labels:
# Assay in all cases: colorimetric ELISA-like DNMT activity assay
# Assay type in all cases: biochemical
# full-length human DNMT1 [1] = biological target: T1, full-length human DNMT1 (Homo sapiens, UniProt P26358); conditions: read-out: % inhibition at 100 μM
# full-length human DNMT1 [2] = biological target: T1, full-length human DNMT1
# murine Dnmt3a = murine Dnmt3a (Mus musculus, UniProt O88508)
# T1 sequence (P26358 whole entry): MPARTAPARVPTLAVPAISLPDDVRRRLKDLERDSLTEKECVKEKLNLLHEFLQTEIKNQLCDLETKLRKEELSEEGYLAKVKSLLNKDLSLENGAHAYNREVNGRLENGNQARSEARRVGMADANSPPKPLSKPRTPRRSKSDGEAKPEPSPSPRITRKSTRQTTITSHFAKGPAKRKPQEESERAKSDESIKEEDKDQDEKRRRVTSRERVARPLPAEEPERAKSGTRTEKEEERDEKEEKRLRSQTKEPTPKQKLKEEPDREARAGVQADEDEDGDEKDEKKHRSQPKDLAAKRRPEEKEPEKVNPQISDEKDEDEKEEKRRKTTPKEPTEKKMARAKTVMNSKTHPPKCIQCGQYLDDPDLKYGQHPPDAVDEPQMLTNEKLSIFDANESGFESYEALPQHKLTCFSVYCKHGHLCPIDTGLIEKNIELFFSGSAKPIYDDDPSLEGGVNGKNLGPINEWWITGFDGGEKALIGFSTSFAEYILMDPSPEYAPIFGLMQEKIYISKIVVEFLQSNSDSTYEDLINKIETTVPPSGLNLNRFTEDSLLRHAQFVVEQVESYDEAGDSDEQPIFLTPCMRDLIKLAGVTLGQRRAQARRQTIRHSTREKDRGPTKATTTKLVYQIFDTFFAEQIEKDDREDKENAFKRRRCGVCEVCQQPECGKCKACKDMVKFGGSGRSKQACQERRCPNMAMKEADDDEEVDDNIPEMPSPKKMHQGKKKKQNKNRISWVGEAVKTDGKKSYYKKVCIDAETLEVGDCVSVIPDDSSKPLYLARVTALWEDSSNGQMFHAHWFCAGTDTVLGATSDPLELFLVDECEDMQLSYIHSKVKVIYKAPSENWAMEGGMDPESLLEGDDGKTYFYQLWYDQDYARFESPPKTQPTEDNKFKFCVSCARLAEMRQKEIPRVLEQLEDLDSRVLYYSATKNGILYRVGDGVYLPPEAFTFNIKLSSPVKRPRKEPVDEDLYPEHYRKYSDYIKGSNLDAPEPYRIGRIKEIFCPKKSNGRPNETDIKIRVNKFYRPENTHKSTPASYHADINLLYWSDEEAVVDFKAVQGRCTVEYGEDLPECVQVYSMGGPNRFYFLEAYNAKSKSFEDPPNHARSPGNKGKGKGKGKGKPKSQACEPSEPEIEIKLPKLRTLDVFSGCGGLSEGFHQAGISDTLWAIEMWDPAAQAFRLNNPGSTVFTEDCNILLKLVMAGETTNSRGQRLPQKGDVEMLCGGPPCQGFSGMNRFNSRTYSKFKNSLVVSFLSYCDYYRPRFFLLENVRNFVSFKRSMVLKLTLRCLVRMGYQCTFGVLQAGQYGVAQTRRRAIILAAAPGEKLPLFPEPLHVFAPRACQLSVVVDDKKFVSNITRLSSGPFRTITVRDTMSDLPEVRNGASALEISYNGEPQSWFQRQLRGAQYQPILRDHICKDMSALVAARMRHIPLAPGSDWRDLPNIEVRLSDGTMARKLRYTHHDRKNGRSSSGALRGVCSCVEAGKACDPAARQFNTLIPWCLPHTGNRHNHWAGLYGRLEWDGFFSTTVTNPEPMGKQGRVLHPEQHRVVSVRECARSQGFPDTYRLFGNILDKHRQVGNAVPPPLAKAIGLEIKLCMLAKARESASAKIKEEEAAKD
inhibition at 100 µM (full-length human DNMT1 [1]) [%],IC50 (full-length human DNMT1 [2]) [nM],IC50 (murine Dnmt3a) [nM],SMILES
11,,,O=C(O)[C@H](Cc1c[nH]c2ccccc12)N1C(=O)c2ccccc2C1=O [RG108]
,680,1400,O=C(O)C1=CC(=C(c2ccc(O)c(C(=O)O)c2)c2ccc(O)c(C(=O)O)c2)C=CC1=O [aurintricarboxylic acid]
,700,,O=C(O[C@@H]1Cc2c(O)cc(O)cc2O[C@@H]1c1cc(O)c(O)c(O)c1)c1cc(O)c(O)c(O)c1 [EGCG]
